# Laboratory results taken from patent US9920295B2, “Bioreactor for isolation of rare cells and methods of use” (The Trustees of the University of Pennsylvania, priority 2012, dated 2018).
# Test system: MKs
# Experiment: In vitro platelet generation from MKs
# Format: cell-based, human
# Settings: 20 μM for 3 d, then 3 d of no drug
# Protocol: For platelet-activation assays, platelet-sided fraction isolated from either MK culture or NSG blood was resuspended in Tyrode's buffer supplemented with Mg^2+ and Ca^2+, and incubated with indicated agonists for 15 min at 37° C., followed by staining with FITC-conjugated anti-human P-selectin or PAC-1 antibody (BD Bioscience), APC-conjugated anti-human CD41, and in the case of xenograft samples, PE-conjugated anti-mouse CD41 for 15 min at room temperature, followed by fixation with 1.5% paraformaldehyde. Antibody-stained samples were then analyzed by flow cytometry. Platelet number was evaluated by mixing each sample with a defined number (˜10,000 beads per sample) of APC-conjugated beads (BD Bioscience). The number of platelets per sample was evaluated by: number of CD41^+ events/number of APC-bead events multiplied by total known number of APC-bead added per sample.
# Transplantation of uncultured human cord-blood CD34^+ cells in immuno-deficient nonobese diabetic (NOD)/SCID mice has been shown previously to yield sustained generation of human platelets (Salles et al., 2009, Blood, 114:5044-5051), but the intravenous delivery route used to date requires a large number of cells for homing and engraftment. Intrabone marrow transplantation was instead used here to more rapidly expose injected cells to the marrow microenvironment per FIG. 1A. […]
smiles,measurement,value
"Cc1ccc2c(c1)C(=O)C1(O)CCN(c3ccccc3)C1=N2 (racemic) [blebbistatin, (±)-blebbistatin]",in vitro platelets per CD41+ cell vs untreated MKs,2.5 fold
